Assay [1] addresses T1, CLOCK:BMAL1 interaction (Homo sapiens, UniProt O15516).
T1 construct: expressed in transfected cells; host or cells: HEK293T
T1 sequence (O15516 1-846): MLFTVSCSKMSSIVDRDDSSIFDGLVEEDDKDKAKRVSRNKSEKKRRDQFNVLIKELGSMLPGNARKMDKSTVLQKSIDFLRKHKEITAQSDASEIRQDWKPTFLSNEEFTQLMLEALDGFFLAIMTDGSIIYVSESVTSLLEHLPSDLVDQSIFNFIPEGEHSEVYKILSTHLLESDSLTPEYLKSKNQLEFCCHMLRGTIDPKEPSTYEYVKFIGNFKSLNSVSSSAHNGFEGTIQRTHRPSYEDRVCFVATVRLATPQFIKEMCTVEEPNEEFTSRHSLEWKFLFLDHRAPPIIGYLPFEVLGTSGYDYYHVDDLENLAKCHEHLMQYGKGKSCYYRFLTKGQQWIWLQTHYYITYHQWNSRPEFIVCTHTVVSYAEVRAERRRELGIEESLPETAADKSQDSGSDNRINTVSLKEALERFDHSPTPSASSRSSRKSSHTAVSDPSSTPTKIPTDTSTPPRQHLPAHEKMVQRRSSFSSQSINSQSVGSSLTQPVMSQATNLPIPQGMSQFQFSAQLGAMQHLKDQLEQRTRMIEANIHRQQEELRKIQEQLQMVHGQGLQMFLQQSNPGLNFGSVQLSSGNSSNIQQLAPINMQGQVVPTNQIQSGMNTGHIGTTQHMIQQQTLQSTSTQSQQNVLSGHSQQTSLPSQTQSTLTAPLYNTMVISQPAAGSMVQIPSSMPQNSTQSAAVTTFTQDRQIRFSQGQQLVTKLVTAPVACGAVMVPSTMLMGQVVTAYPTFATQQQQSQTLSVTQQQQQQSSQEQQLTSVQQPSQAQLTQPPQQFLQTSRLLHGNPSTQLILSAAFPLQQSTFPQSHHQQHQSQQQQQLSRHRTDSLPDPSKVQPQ
Nature of the assay: Mammalian two-hybrid assay. It is filed as cell-based. To be noted: HEK293T. As for the experimental part: The procedure was carried out according to Checkmate-Promega's protocol. Samples were examined in triplicate sets in a 96-well plate. HEK293T cells with the density of 4×10^4 cell/well were transfected with 50 ng of pG5-luc, 50 ng of pACT-mBmal1, 50 ng of pBind-hsClock plasmids and 0.5 ng of pRL-TK for normalization. Following the transfection, the cells were treated with different concentrations of small molecules. Control cells were treated with 0.5% vehicle (DMSO).
Ultimately, luminescence was measured using Dual-Luciferase Reporter Assay System (Promega) with Fluoroskan Ascent FL plate reader.

The subject of assay [2] is core clock components. Put plainly: Time dependent protein and mRNA analysis in synchronized U2OS cells. It is filed as cell-based, human. As for the experimental part: FIGS. 5A-5K are an illustration of FORMULA I altered CLOCK protein level in time dependent manner. Confluent U2OS cells were synchronized by 2-hours treatment with dexamethasone (0.1 μM) and medium replaced with fresh medium containing CLK8 or DMSO. Cells were harvested at indicated time points. FIGS. 5A-5D show a time dependent analysis of core clock proteins by Western blot. (mean±SEM, n=3). FIGS. 5E-5K show a qPCR analysis of the core clock genes in a time dependent manner. (Data represent the mean±SEM, n=3 ***: p<0.001 **: p<0.005, *: p<0.05 versus DMSO control by one-way ANOVA Tukey).
Unsynchronized Bmal1::dluc U2OS cells were seeded on 6-well dishes. Confluent cells were treated with an appropriate amount of CLK8 for 48 hours. Control cells were treated with 0.5% vehicle (DMSO). After harvesting the cells, mRNAs were isolated (RNeasy, QIAGEN) and converted to cDNA (Thermo Scientific). Finally, cDNAs were subjected to SYBR Green-based RT-qPCR assay. PRLP0 was used as an internal control. For western blot analysis RIPA buffer was used to prepare whole cell lysates. The amount of protein for each sample was normalized to the β-ACTIN amount detected by β-Actin antibody (Cell Signalling).

Assay [3] has as its system CLOCK, BMAL1 and CRY1. Nature of the assay: In vivo study in mouse liver, Western blot. The conditions noted are these: 25 mg/kg i.p., 6 h. As for the experimental part:
Male C57BL/6J mice, 8 weeks of age, weighing 18-24 g were treated with two different single doses of CLK8 (25 mg/kg n=5 per each dose) intraperitoneally. Control mice (n=3) were only treated with vehicle (DMSO:Cremophor EL: 0.9% NaCl; 2.5:15:82.5, v/v, i.p.). Water and food were provided ad libitum throughout the experiments. Six hours after injection, mice were sacrificed by cervical dislocation. Liver tissues were removed, frozen in liquid nitrogen and stored at −80° C. until further processing.
(Immunoblotting shows a protein as a band on a membrane.)

We go through one compound from patent US12558342B2, “2-[2-({12,12-dimethyl-4-oxo-6-phenyl-3,11-dioxatricyclo[8.4.0.0,2,7]tetradeca-1,5,7,9-tetraen-8-yl}oxy)acetamido]benzamide and derivatives as inhibitor of clock:bmal1 interaction for the treatment of circadian rhythm diseases and disorders” (KOC UNIVERSITESI, priority 2019, dated 2026).

On to `CC1(C)CCc2c(cc(OCC(=O)Nc3ccccc3C(N)=O)c3c(-c4ccccc4)cc(=O)oc23)O1` [CLK8, 2-[2-({12,12-dimethyl-4-oxo-6-phenyl-3,11-dioxatricyclo [8.4.0.0,2,7]tetradeca-1,5,7,9-tetraen-8-yl}oxy)acetamido] benzamide], for which, in assay [1], the “interaction between CLOCK and BMAL1 (two-hybrid)” value was “reduces the interaction between CLOCK and BMAL1”. Further, in assay [2], the “CRY1 and PER2 protein abundance” value was “comparable protein abundance”; the “CRY1 and PER2 transcript level” value was “significantly reduced”; the “protein levels of CLOCK and BMAL1” value is listed as “reduced”; the “transcriptional level of Clock” value is listed as “increased”. In addition, the “oscillatory amplitude of clock gene expression” value in assay [2] (collected every 6 h) was “generally lower”. In addition, in assay [3], the “CLOCK abundance in the nucleus (liver)” value was “significantly low”; the “CLOCK levels in whole liver cell lysate” value is “decrease”; the “cytosolic and nuclear BMAL1 and CRY1 (liver)” value is on record as “unaltered”; the “levels of BMAL1 and CRY1 in whole liver cell lysate” value was “unaltered”.
